Assay [1] concerns HAP1 MTAP-intact. Nature of the assay: SDMA in-cell western assay, HAP1 MTAP-intact cell line. The assay is classed as cell-based. The conditions noted are these: Homo sapiens. Put shortly:
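Symmetric dimethylarginine (SDMA) levels were measured by in-cell western in an isogenic HAP1 pair, one expressing endogenous MTAP and one MTAP-null, and IC50 values were derived for each line. Compounds whose IC50 ratio between the lines is 3-fold or more are classed as MTAP-selective.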

The target in assay [2] is T1, PRMT5 (Homo sapiens, UniProt O14744).
T1 construct: purchased Viva (custom protein)
T1 sequence (O14744 whole entry): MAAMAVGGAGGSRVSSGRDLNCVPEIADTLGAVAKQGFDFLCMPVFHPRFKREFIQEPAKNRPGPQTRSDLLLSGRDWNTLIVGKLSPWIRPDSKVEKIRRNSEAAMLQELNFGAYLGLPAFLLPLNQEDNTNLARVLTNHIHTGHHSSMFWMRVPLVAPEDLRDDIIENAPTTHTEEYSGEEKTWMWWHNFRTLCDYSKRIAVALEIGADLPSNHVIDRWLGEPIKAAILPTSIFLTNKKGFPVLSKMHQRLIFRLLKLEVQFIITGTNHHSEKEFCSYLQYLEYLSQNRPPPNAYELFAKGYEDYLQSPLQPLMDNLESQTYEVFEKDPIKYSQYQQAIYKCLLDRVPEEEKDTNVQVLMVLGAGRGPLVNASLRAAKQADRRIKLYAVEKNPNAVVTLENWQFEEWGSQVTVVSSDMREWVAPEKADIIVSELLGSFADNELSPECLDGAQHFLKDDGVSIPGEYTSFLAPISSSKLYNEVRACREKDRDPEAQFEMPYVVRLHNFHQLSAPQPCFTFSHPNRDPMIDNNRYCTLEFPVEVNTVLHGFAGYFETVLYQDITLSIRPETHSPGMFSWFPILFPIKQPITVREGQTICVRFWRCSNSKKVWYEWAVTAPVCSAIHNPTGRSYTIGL
T1 sequence (Q9BQA1 whole entry partner): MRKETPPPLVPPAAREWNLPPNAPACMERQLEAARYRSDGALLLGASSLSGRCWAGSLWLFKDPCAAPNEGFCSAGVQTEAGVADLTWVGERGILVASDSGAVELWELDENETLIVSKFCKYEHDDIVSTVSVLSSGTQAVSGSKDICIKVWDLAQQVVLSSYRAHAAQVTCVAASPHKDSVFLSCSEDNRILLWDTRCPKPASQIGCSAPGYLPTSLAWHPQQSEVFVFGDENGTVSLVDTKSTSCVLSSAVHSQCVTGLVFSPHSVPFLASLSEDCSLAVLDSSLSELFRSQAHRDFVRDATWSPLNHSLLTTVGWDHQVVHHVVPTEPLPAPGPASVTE
The assay is described as follows: PRMT5 IC50 assay in the presence of SAM as cofactor. The assay is classed as biochemical. An outline of the steps:
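Results given as IC50 (μM), from which Ki follows by dividing by 1.5 in the SAM condition or by 13.5 in the MTA condition. The ratio of SAM Ki to MTA Ki indicates MTA-cooperative preference.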

Assay [3] concerns the target T1, PRMT5. Nature of the assay: PRMT5 IC50 assay with no cofactor. The assay is classed as biochemical. An outline of the steps:
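For the SAM-containing format, dividing IC50 by 1.5 yields Ki; for the MTA-containing format the divisor is 13.5. A third format without cofactor gives IC50 alone.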

Assay [4] addresses T1, PRMT5. Nature of the assay: PRMT5 IC50 assay in the presence of MTA as cofactor. The assay is classed as biochemical. To be noted: for IC50: PRMT5, MTA as cofactor; for SAM/MTA Ratio: ratio between the Ki in the presence of SAM and the Ki in the presence of MTA. An outline of the steps: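 Ki conversion: SAM arm, Ki=IC50/1.5; MTA arm, Ki=IC50/13.5. No-cofactor arm reported as IC50 only. Selectivity expressed as Ki(SAM)/Ki(MTA).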

The test system of assay [5] is HAP1 MTAP-deleted. The assay is described as follows: SDMA in-cell western assay, HAP1 MTAP-deleted cell line. The assay is classed as cell-based. To be noted: for IC50: Homo sapiens, HAP1 MTAP-deleted cell line; for MTAP Intact/Deleted Ratio: IC50 ratio HAP1 MTAP-intact / HAP1 MTAP-deleted. Put shortly:
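Symmetric dimethylarginine (SDMA) levels were measured by in-cell western in MTAP-null HAP1 cells, one half of an MTAP-isogenic pair whose partner line expresses endogenous MTAP. Compound potency is reported as IC50.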

Molecules are shown by their SMILES.

Broadly, the IC50 is the concentration that gives 50% inhibition.

Take `Cc1ncoc1COc1ccc2c(c1C)CCN(C[C@@H](O)CNC(=O)c1cc(NC3CCC3)nc(OCCN(C)C)c1)C2` [Compound 500, 2-(cyclobutylamino)-6-[2-(dimethylamino)ethoxy]-N-[(2S)-2-hydroxy-3-{5-methyl-6-[(4-methyl-1,3-oxazol-5-yl)methoxy]-1,2,3,4-tetrahydroisoquinolin-2-yl}propyl]pyridine-4-carboxamide]: the IC50 in assay [1] is no less than 10000 nM; in assay [2], 50 to 500 nM; in assay [3], 500 to 5000 nM; in assay [4] it was 50 to 500 nM; in assay [5], less than 1000 nM. Also, the “SAM/MTA Ratio” value in assay [4] is “A (a Ki ratio greater than or equal to 10 fold between the Ki in the presence of SAM and the Ki in the presence of MTA)”. In addition, in assay [5], the “MTAP Intact/Deleted Ratio” value was “A* (an IC50 ratio greater than or equal to 10 fold between the IC50 in the HAP1 MTAP-intact cell line and the HAP1 MTAP-deleted cell line)”.
Regarding `Cc1ncoc1COc1ccc2c(c1Cl)CCN(C[C@@H](O)CNC(=O)c1cc(NC3CCCCC3)ncn1)C2` [Compound 501, N-[(2S)-3-[5-chloro-6-[(4-methyl-1,3-oxazol-5-yl)methoxy]-1,2,3,4-tetrahydroisoquinolin-2-yl]-2-hydroxypropyl]-6-(cyclohexylamino)pyrimidine-4-carboxamide], the IC50 was no less than 10000 nM in assay [1]; 50 to 500 nM in assay [2]; no less than 5000 nM in assay [3]; 50 to 500 nM in assay [4]; no less than 10000 nM in assay [5]. In addition, the “SAM/MTA Ratio” value in assay [4] was “A (a Ki ratio greater than or equal to 10 fold between the Ki in the presence of SAM and the Ki in the presence of MTA)”. Further, the “MTAP Intact/Deleted Ratio” value in assay [5] was “C* (an IC50 ratio of less than 3 fold between the IC50 in the HAP1 MTAP-intact cell line and the HAP1 MTAP-deleted cell line)”.
For `CC(=O)N1CCN(c2cc(C(=O)NC[C@H](O)CN3CCc4c(ccc(OCc5ocnc5C)c4C)C3)cc(NC3CCC3)n2)CC1` [Compound 502, 2-(4-acetylpiperazin-1-yl)-6-(cyclobutylamino)-N-[(2S)-2-hydroxy-3-{5-methyl-6-[(4-methyl-1,3-oxazol-5-yl)methoxy]-1,2,3,4-tetrahydroisoquinolin-2-yl}propyl]pyridine-4-carboxamide], the IC50 in assay [1] is 1000 to 10000 nM; in assay [2], 50 to 500 nM; in assay [3] it was 500 to 5000 nM; in assay [4], 50 to 500 nM; in assay [5], less than 1000 nM. In assay [4], the “SAM/MTA Ratio” value is “A (a Ki ratio greater than or equal to 10 fold between the Ki in the presence of SAM and the Ki in the presence of MTA)”. Further, in assay [5], the “MTAP Intact/Deleted Ratio” value was “A* (an IC50 ratio greater than or equal to 10 fold between the IC50 in the HAP1 MTAP-intact cell line and the HAP1 MTAP-deleted cell line)”.
As to `Cc1ncoc1COc1ccc2c(c1C)CCN(C[C@@H](O)CNC(=O)c1cc(NC3CCC3)nc(N3CCN(C)CC3)c1)C2` [Compound 503, 2-(cyclobutylamino)-N-[(2S)-2-hydroxy-3-{5-methyl-6-[(4-methyl-1,3-oxazol-5-yl)methoxy]-1,2,3,4-tetrahydroisoquinolin-2-yl}propyl]-6-(4-methylpiperazin-1-yl)pyridine-4-carboxamide], the IC50 is no less than 10000 nM in assay [1]; 50 to 500 nM in assay [2]; 500 to 5000 nM in assay [3]; 50 to 500 nM in assay [4]; less than 1000 nM in assay [5]. The “SAM/MTA Ratio” value in assay [4] was “A (a Ki ratio greater than or equal to 10 fold between the Ki in the presence of SAM and the Ki in the presence of MTA)”. Further, in assay [5], the “MTAP Intact/Deleted Ratio” value is “A* (an IC50 ratio greater than or equal to 10 fold between the IC50 in the HAP1 MTAP-intact cell line and the HAP1 MTAP-deleted cell line)”.
As to `Cc1ncoc1COc1ccc2c(c1C)CCN(C[C@@H](O)CNC(=O)c1cc(CC(C)C)nc(NC3CCC3)c1)C2` [Compound 504, 2-(cyclobutylamino)-N-[(2S)-2-hydroxy-3-{5-methyl-6-[(4-methyl-1,3-oxazol-5-yl)methoxy]-1,2,3,4-trihydroisoquinolin-2-yl}propyl]-6-(2-methylpropyl)pyridine-4-carboxamide], the IC50 is no less than 10000 nM in assay [1]; 50 to 500 nM in assay [2]; no less than 5000 nM in assay [3]; 50 to 500 nM in assay [4]; no less than 10000 nM in assay [5]. For the same compound, in assay [4], the “SAM/MTA Ratio” value was “A (a Ki ratio greater than or equal to 10 fold between the Ki in the presence of SAM and the Ki in the presence of MTA)”. The “MTAP Intact/Deleted Ratio” value in assay [5] was “C* (an IC50 ratio of less than 3 fold between the IC50 in the HAP1 MTAP-intact cell line and the HAP1 MTAP-deleted cell line)”.
As to `Cc1ncoc1COc1cc(F)c2c(c1)CCN(C[C@@H](O)CNC(=O)c1ccnc(NC3CCC3)c1)C2` [Compound 506, 2-(cyclobutylamino)-N-[(2S)-3-[8-fluoro-6-[(4-methyloxazol-5-yl)methoxy]-3,4-dihydro-1H-isoquinolin-2-yl]-2-hydroxy-propyl]pyridine-4-carboxamide], the half-inhibitory concentration (IC50) in assay [1] is no less than 10000 nM; in assay [2] it was 50 to 500 nM; in assay [3], no less than 5000 nM; in assay [4], 50 to 500 nM; in assay [5] it was 1000 to 10000 nM. For the same compound, the “SAM/MTA Ratio” value in assay [4] was “A (a Ki ratio greater than or equal to 10 fold between the Ki in the presence of SAM and the Ki in the presence of MTA)”. Besides, the “MTAP Intact/Deleted Ratio” value in assay [5] is “B* (an IC50 ratio greater than or equal to 3 fold but lower than 10 fold between the IC50 in the HAP1 MTAP-intact cell line and the HAP1 MTAP-deleted cell line)”.
Take `CC(=O)N1CCC(Nc2ccnc(C(=O)NC[C@H](O)CN3CCc4cc(OCc5cnco5)ccc4C3)c2)CC1` [Compound 507, (S)-4-((1-acetylpiperidin-4-yl)amino)-N-(2-hydroxy-3-(6-(oxazol-5-ylmethoxy)-3,4-dihydroisoquinolin-2(1H)-yl)propyl)picolinamide]: the IC50 in assay [1] is no less than 10000 nM; in assay [2], 50 to 500 nM; in assay [3] it was 500 to 5000 nM; in assay [4], 50 to 500 nM; in assay [5], 1000 to 10000 nM. The “SAM/MTA Ratio” value in assay [4] was “A (a Ki ratio greater than or equal to 10 fold between the Ki in the presence of SAM and the Ki in the presence of MTA)”. Further, the “MTAP Intact/Deleted Ratio” value in assay [5] was “B* (an IC50 ratio greater than or equal to 3 fold but lower than 10 fold between the IC50 in the HAP1 MTAP-intact cell line and the HAP1 MTAP-deleted cell line)”.
Turning to `O=C(NC[C@H](O)CN1CCc2cc(OCc3cnco3)ccc2C1)c1cc(NC2CCC2)ccn1` [Compound 509, (S)-4-(cyclobutylamino)-N-(2-hydroxy-3-(6-(oxazol-5-ylmethoxy)-3,4-dihydroisoquinolin-2(1H)-yl)propyl)picolinamide], the IC50 is 1000 to 10000 nM in assay [1]; 500 to 5000 nM in assay [2]; 500 to 5000 nM in assay [3]; 50 to 500 nM in assay [4]; less than 1000 nM in assay [5]. Besides, in assay [4], the “SAM/MTA Ratio” value is “A (a Ki ratio greater than or equal to 10 fold between the Ki in the presence of SAM and the Ki in the presence of MTA)”. Also, the “MTAP Intact/Deleted Ratio” value in assay [5] is “C* (an IC50 ratio of less than 3 fold between the IC50 in the HAP1 MTAP-intact cell line and the HAP1 MTAP-deleted cell line)”.
For `CC(=O)N1CC(Nc2cc(C(=O)NC[C@H](O)CN3CCc4c(ccc(OCc5cnco5)c4C)C3)ccn2)C1` [Compound 512, (S)-2-((1-acetylazetidin-3-yl)amino)-N-(2-hydroxy-3-(5-methyl-6-(oxazol-5-ylmethoxy)-3,4-dihydroisoquinolin-2(1H)-yl)propyl)isonicotinamide], the IC50 is no less than 10000 nM in assay [1]; 50 to 500 nM in assay [2]; no less than 5000 nM in assay [3]; 50 to 500 nM in assay [4]; no less than 10000 nM in assay [5]. Further, the “SAM/MTA Ratio” value in assay [4] was “A (a Ki ratio greater than or equal to 10 fold between the Ki in the presence of SAM and the Ki in the presence of MTA)”. Further, in assay [5], the “MTAP Intact/Deleted Ratio” value was “C* (an IC50 ratio of less than 3 fold between the IC50 in the HAP1 MTAP-intact cell line and the HAP1 MTAP-deleted cell line)”.
For `O=C(NC[C@H](O)CN1CCc2cc(OCc3cnco3)c(F)cc2C1)c1ccnc(NC2CCC2)c1` [Compound 513, 2-(cyclobutylamino)-N-[(2S)-3-[7-fluoro-6-(oxazol-5-ylmethoxy)-3,4-dihydro-1H-isoquinolin-2-yl]-2-hydroxy-propyl]pyridine-4-carboxamide], the IC50 in assay [1] is no less than 10000 nM; in assay [2] it was 500 to 5000 nM; in assay [3], no less than 5000 nM; in assay [4], 50 to 500 nM; in assay [5] it was 1000 to 10000 nM. In addition, the “SAM/MTA Ratio” value in assay [4] is “A (a Ki ratio greater than or equal to 10 fold between the Ki in the presence of SAM and the Ki in the presence of MTA)”. Moreover, in assay [5], the “MTAP Intact/Deleted Ratio” value is “B* (an IC50 ratio greater than or equal to 3 fold but lower than 10 fold between the IC50 in the HAP1 MTAP-intact cell line and the HAP1 MTAP-deleted cell line)”.
With `Cc1c(OCc2cnco2)ccc2c1CCN(C[C@@H](O)CNC(=O)c1cc(NC3CCC3)ccn1)C2` [Compound 515, 4-(cyclobutylamino)-N-[(2S)-2-hydroxy-3-{5-methyl-6-[(1,3-oxazol-5-yl)methoxy]-1,2,3,4-tetrahydroisoquinolin-2-yl}propyl]pyridine-2-carboxamide], the IC50 in assay [1] is 1000 to 10000 nM; in assay [2] it was 500 to 5000 nM; in assay [3] it was no less than 5000 nM; in assay [4], 50 to 500 nM; in assay [5], 1000 to 10000 nM. Besides, the “SAM/MTA Ratio” value in assay [4] is “A (a Ki ratio greater than or equal to 10 fold between the Ki in the presence of SAM and the Ki in the presence of MTA)”. Moreover, the “MTAP Intact/Deleted Ratio” value in assay [5] is “C* (an IC50 ratio of less than 3 fold between the IC50 in the HAP1 MTAP-intact cell line and the HAP1 MTAP-deleted cell line)”.

(Values after patent US11986471B2, “Compounds and methods of use” (Tango Therapeutics, Inc., priority 2018, dated 2024).)
